Counter-ions that a name gives are not always drawn.

For 5 compounds, inhibition results are on record in US5242930A, “Azabicyclic compounds, pharmaceutical compositions containing them and their use in therapy” (Merck Sharp & Dohme Ltd., priority 1991, dated 1993).

This experiment concerns longitudinal muscle of guinea pig ileum. Kind of experiment: Antagonism of the contraction elicited by SPOMe (substance P methyl ester) on guinea pig ileum longitudinal muscle (isometric contraction). The note with it: Cavia porcellus, compound at 1.0 μM, 0.1μM SPOMe.

As usually defined, the inhibition is the change of the read-out against control, counted positive when it falls. Low values mean a weak effect, high ones a strong effect. `Fc1cc(F)cc(CO[C@H]2C3CCN(CC3)[C@H]2C(c2ccccc2)c2ccccc2)c1` (relative stereo) [Example 7, cis-3-(3,5-Difluorobenzyloxy)-2-(diphenylmethyl)-1-azabicyclo[2.2.2]octane oxalate] displayed an inhibition at 1 µM of more than 70%.

`Clc1cccc(CO[C@H]2C3CCN(CC3)[C@H]2C(c2ccccc2)c2ccccc2)c1` (relative stereo) [Example 4, cis-3-(3-Chlorobenzyloxy)-2-(diphenylmethyl)-1-azabicyclo[2.2.2]octane oxalate] came in with an inhibition at 1 µM of more than 70%.

For `O=[N+]([O-])c1cccc(CO[C@H]2C3CCN(CC3)[C@H]2C(c2ccccc2)c2ccccc2)c1` (relative stereo) [Example 1, cis-2-(Diphenylmethyl)-3-(3-nitrobenzyloxy)-1-azabicyclo[2.2.2]octane oxalate], the inhibition at 1 µM is more than 70%.

Take `COc1ccc(CO[C@H]2C3CCN(CC3)[C@H]2C(c2ccccc2)c2ccccc2)cc1` (relative stereo) [Example 8, cis-2-(Diphenylmethyl)-3-(4-methoxybenzyloxy)-1-azabicyclo[2.2.2]octane oxalate]: the inhibition at 1 µM was more than 70%.

As to `FC(F)(F)c1ccccc1CO[C@H]1C2CCN(CC2)[C@H]1C(c1ccccc1)c1ccccc1` (relative stereo) [Example 2, cis-2-(Diphenylmethyl)-3-[2-(trifluoromethyl)benzyloxy]-1-azabicyclo[2.2.2]octane oxalate], the inhibition at 1 µM is more than 70%.
